We go through six molecules from PubChem BioAssay (NCI).

Several values for one entry are separate records, joined by “and”; a condition that tells them apart may be missing. Equal entries are not always repeated.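 The compound was tested at five concentrations on cells cultured in 96-well plates, with a 48-hour exposure period. GI50 = concentration required for 50% inhibition of growth. TGI marks complete inhibition of growth.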

Broadly, the GI50 is the concentration that inhibits growth by half. The TGI is the concentration giving total growth inhibition. Higher therefore signals lower sensitivity of the cells.

Among the test systems are SNB-19 CNS; TK-10 renal; NCI-H23 lung; RPMI-8226 leukemia; A549 NSCLC; NCI-H522 lung; A498 renal; HCT-15 colon; MALME-3M melanoma; MDA-MB-435.
Holding throughout (assay): DTP human tumour cell line panel, 48 h

On to `Cc1ccc(-c2cc(C(=O)Nc3ccc(S(=O)(=O)N4CCCCC4)cc3)[nH]n2)c(O)c1`, for which the GI50 in the assay on SNB-19 CNS, in the assay on TK-10 renal, in the assay with NCI-H23 lung, in the assay on RPMI-8226 leukemia, with A549 NSCLC and in the assay with NCI-H522 lung was > 100 µM throughout. For the same molecule, the GI50 with A498 renal, in the assay on HCT-15 colon, in the assay with MALME-3M melanoma and in the assay on MDA-MB-435 was > 100 µM throughout. The TGI in the assay on SNB-19 CNS, with TK-10 renal, with NCI-H23 lung, with RPMI-8226 leukemia, in the assay with A549 NSCLC and in the assay on NCI-H522 lung was > 100 µM each time. Moreover, the TGI in the assay on A498 renal, in the assay with HCT-15 colon, in the assay with MALME-3M melanoma and with MDA-MB-435 was > 100 µM each time.

For the molecule `Cn1cnc([N+](=O)[O-])c1S(=O)(=O)Oc1ccc(Cl)cc1`, the GI50 with SNB-19 CNS was > 100 µM; in the assay with TK-10 renal, 27.8 µM; with NCI-H23 lung, 8.88 µM; in the assay with RPMI-8226 leukemia, 3.58 µM; in the assay with A549 NSCLC, 58.2 µM; in the assay with NCI-H522 lung, 1.82 µM. Moreover, the GI50 in the assay on A498 renal was 17 µM; in the assay on HCT-15 colon, 1.64 µM; in the assay on MALME-3M melanoma, 1.99 µM; with MDA-MB-435, 16.2 µM. Further, the TGI in the assay on SNB-19 CNS is > 100 µM; with TK-10 renal, > 100 µM; with NCI-H23 lung, 25.6 µM; with RPMI-8226 leukemia it was 17.7 µM; with A549 NSCLC it was > 100 µM; with NCI-H522 lung it was 4.22 µM. In addition, the total growth inhibition concentration (TGI) in the assay on A498 renal was 42.5 µM; with HCT-15 colon, 3.47 µM; in the assay on MALME-3M melanoma, 4.15 µM; in the assay with MDA-MB-435 it was 36.2 µM.

With `CCc1cc2c(c(OCC(F)(F)F)c(C(=O)NC3CCN(C(=O)CO)CC3)n2C)c(=O)n1CC(=O)c1ccccc1`, the GI50 with SNB-19 CNS is > 100 µM; in the assay on TK-10 renal, > 100 µM; with NCI-H23 lung, 99.7 µM; in the assay with RPMI-8226 leukemia it was 27.7 µM; with A549 NSCLC, 92.2 µM; in the assay on NCI-H522 lung, > 95.9 µM. The GI50 in the assay with A498 renal was 99.3 µM; in the assay with HCT-15 colon, 52.3 µM; in the assay with MALME-3M melanoma it was > 100 µM; with MDA-MB-435, > 100 µM. Besides, the TGI in the assay with SNB-19 CNS, with TK-10 renal, in the assay on NCI-H23 lung, in the assay with RPMI-8226 leukemia, in the assay with A549 NSCLC and with NCI-H522 lung was > 100 µM each time. The TGI in the assay with A498 renal, in the assay with HCT-15 colon, in the assay with MALME-3M melanoma and with MDA-MB-435 was > 100 µM throughout.

Take `COc1ccc2c(n1)Sc1nc3ccccc3nc1N2`: the TGI with SNB-19 CNS was > 100 µM; with TK-10 renal, 80.1 µM; with NCI-H23 lung, > 100 µM; with RPMI-8226 leukemia it was > 100 µM; in the assay with A549 NSCLC, > 100 µM; with NCI-H522 lung it was > 100 µM. Also, the TGI with A498 renal, in the assay with HCT-15 colon, in the assay on MALME-3M melanoma and in the assay on MDA-MB-435 was > 100 µM in each case.

Regarding `CCOC(=O)c1ccc(N2NC(=O)/C(=C/c3ccc([N+](=O)[O-])o3)C2=O)cc1`, the GI50 with SNB-19 CNS was > 44.8 µM; with TK-10 renal, 9.04 µM; in the assay with NCI-H23 lung it was 21 µM; in the assay on RPMI-8226 leukemia, 30.1 µM; in the assay on A549 NSCLC, > 44.7 µM; with NCI-H522 lung, 4.18 µM. For the same molecule, the GI50 with A498 renal was > 37 µM; with HCT-15 colon, 13.6 µM; in the assay on MALME-3M melanoma, 15.6 µM; in the assay on MDA-MB-435, 15.1 µM. The concentration for total growth inhibition (TGI) was > 72.2 µM with SNB-19 CNS; 23.2 µM in the assay on TK-10 renal; 52.6 µM in the assay with NCI-H23 lung; > 96.5 µM with RPMI-8226 leukemia; > 60.6 µM in the assay with A549 NSCLC; 8.53 µM with NCI-H522 lung. For the same molecule, the TGI with A498 renal was > 51.6 µM; in the assay on HCT-15 colon, 31.5 µM; with MALME-3M melanoma, 35.1 µM; with MDA-MB-435, 33 µM.

With `O=C(COc1ccccc1)NNc1ccccc1`, the GI50 in the assay on SNB-19 CNS was 234 µM; in the assay with TK-10 renal it was > 300 µM; with NCI-H23 lung it was > 300 µM; with RPMI-8226 leukemia, 68.3 µM and 274 µM; in the assay with A549 NSCLC it was 60.4 µM; in the assay with NCI-H522 lung, 7.79 µM. The GI50 in the assay with A498 renal is 87.7 µM; with HCT-15 colon it was 8.88 µM and 12.3 µM; in the assay with MALME-3M melanoma, 66.9 µM and 101 µM; in the assay on MDA-MB-435, 12.2 µM and 16.1 µM. The total growth inhibition concentration (TGI) with SNB-19 CNS, in the assay with TK-10 renal, with NCI-H23 lung, in the assay on RPMI-8226 leukemia, with A498 renal and in the assay on HCT-15 colon was > 300 µM each time. Further, the TGI in the assay with MALME-3M melanoma and in the assay on MDA-MB-435 was > 300 µM throughout.
